Data as given in patent US5622962A, “5α-reductase inhibitors” (priority 1995, dated 1997).

Legend:
[1] = target: T1, Type I 5α-Reductase from Human Scalp (Homo sapiens, UniProt P18405); experiment: Human Type I 5α-reductase assay (conversion of [3H]-testosterone to 5α-reduced metabolites); format: biochemical; conditions: pH 7.5, 0.3 μM; 50 nM [3H]-testosterone, pH 7.5, 25°, 180 min; compared to control reaction mixtures; read-out: percent inhibition of Type I AR
T1 construct: Scalp punch biopsies from graft recipient sites were obtained from human hair transplant procedures; from tissue; host or cells: human scalp punch biopsies (hair transplant graft recipient sites), homogenate, 100,000×g pellet
T1 sequence (P18405 1-259): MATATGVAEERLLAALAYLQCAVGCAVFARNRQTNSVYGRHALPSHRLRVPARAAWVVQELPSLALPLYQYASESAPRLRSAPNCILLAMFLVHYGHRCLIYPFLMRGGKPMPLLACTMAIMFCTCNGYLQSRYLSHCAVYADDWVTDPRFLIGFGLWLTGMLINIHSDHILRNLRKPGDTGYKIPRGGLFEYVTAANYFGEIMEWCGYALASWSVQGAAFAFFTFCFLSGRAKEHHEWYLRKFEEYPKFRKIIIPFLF

[2] = target: T2, Type II 5α-Reductase from Human Prostate (Homo sapiens, UniProt P31213); experiment: Human Type II 5α-reductase assay (conversion of [3H]-testosterone to 5α-reduced metabolites); format: biochemical; conditions: pH 5.5, 0.3 μM; sodium acetate pH 5.5, 25°, 30 min; compared to control reaction mixtures; read-out: percent inhibition of Type II AR
T2 construct: The same procedure as above was used for preparations using tissue from prostate surgery; from tissue; host or cells: human prostate tissue from surgery, homogenate, 100,000×g pellet
T2 sequence (P31213 1-254): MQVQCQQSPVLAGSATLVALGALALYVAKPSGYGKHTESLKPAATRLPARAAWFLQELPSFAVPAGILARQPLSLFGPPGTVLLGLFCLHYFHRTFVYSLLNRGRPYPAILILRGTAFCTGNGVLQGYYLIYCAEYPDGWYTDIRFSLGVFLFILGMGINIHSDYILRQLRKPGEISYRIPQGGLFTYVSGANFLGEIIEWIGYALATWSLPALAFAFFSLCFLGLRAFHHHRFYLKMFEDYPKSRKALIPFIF

| Structure (SMILES) | inhibition at 0.3 µM [1] | inhibition at 0.3 µM [2] |
| --- | --- | --- |
| CN1C(=O)CC[C@]2(C)c3ccc(-c4cccc5ncccc45)cc3CC[C@@H]12 [Example 240, (+)-(4aR)-(10bR)-4-methyl-8-(5-quinolinyl)-10b-methyl-1,2,3,4,4a,5,6,10b-octahydrobenzo[f]quinolin-3-one] | 55% | 17% |
| CN1C(=O)CC[C@]2(C)c3ccc(-c4cccc5cnccc45)cc3CC[C@@H]12 [Example 241, (+)-(4aR)-(10bR)-4-methyl-8-(5-isoquinolinyl)-10b-methyl-1,2,3,4,4a,5,6,10b-octahydrobenzo[f]quinolin-3-one] | 65% | 33% |
| CN1C(=O)CC[C@]2(C)c3ccc(-c4ccccn4)cc3CC[C@@H]12 [Example 242, (+)-(4aR)-(10bR)-4-methyl-8-(2-pyridinyl)-10b-methyl-1,2,3,4,4a,5,6,10b-octahydrobenzo[f]quinolin-3-one] | 5% | 24% |
| CN1C(=O)CC[C@]2(C)c3ccc(-c4cc(F)c([N+](=O)[O-])cc4F)cc3CC[C@@H]12 [Example 243, (+)-(4aR)-(10bR)-4-methyl-8-(2,5-difluoro-4-nitrophenyl)-10b-methyl-1,2,3,4,4a,5,6,10b-octahydrobenzo[f]quinolin-3-one] | 88% | 54% |
| CN1C(=O)CC[C@]2(C)c3ccc(-c4ccc5ncccc5c4)cc3CC[C@@H]12 [Example 244, (+)-(4aR)-(10bR)-4-methyl-8-(6-quinolinyl)-10b-methyl-1,2,3,4,4a,5,6,10b-octahydrobenzo[f]quinolin-3-one] | 51% | 32% |
| CN1C(=O)CC[C@]2(C)c3ccc(-c4ccc5c6c(cccc46)C(=O)N(C4CCN(Cc6ccccc6)CC4)C5=O)cc3CC[C@@H]12 [Example 246, (+)-(4aR)-(10bR)-4-methyl-8-[2-(4-[N-benzyl]piperidinyl)-1H-benzo<de>isoquinolin-6-yl-1,3-(2H)dione]-10b-methyl-1,2,3,4,4a,5,6,10b-octahydrobenzo[f]quinolin-3-one] | 92% | 45% |
| CN1C(=O)CC[C@]2(C)c3ccc(-c4ccc5ccccc5n4)cc3CC[C@@H]12 [Example 247, (+)-(4aR)-(10bR)-4-methyl-8-(2-quinolinyl)-10b-methyl-1,2,3,4,4a,5,6,10b-octahydrobenzo[f]quinolin-3-one] | 60% | 32% |
| CN1C(=O)CC[C@]2(C)c3ccc(-c4ccc5oc(=O)ccc5c4)cc3CC[C@@H]12 [Example 248, (+)-(4aR)-(10bR)-4-methyl-8-(2-oxo-1-benzopyran-6-yl)-10b-methyl-1,2,3,4,4a,5,6,10b-octahydrobenzo[f]quinolin-3-one] | 54% | 22% |
| CN1C(=O)CC[C@]2(C)c3ccc(-c4ccc5ncsc5c4)cc3CC[C@@H]12 [Example 249, (+)-(4aR)-(10bR)-4-methyl-8-(6-benzothiazolyl)-10b-methyl-1,2,3,4,4a,5,6,10b-octahydrobenzo[f]quinolin-3-one] | 69% | 24% |
| CN1C(=O)CC[C@]2(C)c3ccc(-c4ccc5c(ccn5C(=O)OC(C)(C)C)c4)cc3CC[C@@H]12 [Example 250, (+)-(4aR)-(10bR)-4-methyl-8-(1-[t-butoxycarbonyl]-5-indolyl)-10b-methyl-1,2,3,4,4a,5,6,10b-octahydrobenzo[f]quinolin-3-one] | 83% | 1% |
| CN1C(=O)CC[C@]2(C)c3ccc(-c4nc5ccccc5o4)cc3CC[C@@H]12 [Example 251, (+)-(4aR)-(10bR)-4-methyl-8-(2-benzoxazolyl)-10b-methyl-1,2,3,4,4a,5,6,10b-octahydrobenzo[f]quinolin-3-one] | 69% | 36% |
| CN1C(=O)CC[C@]2(C)c3ccc(-c4nc5ccccc5s4)cc3CC[C@@H]12 [Example 252, (+)-(4aR)-(10bR)-4-methyl-8-(2-benzothiazolyl)-10b-methyl-1,2,3,4,4a,5,6,10b-octahydrobenzo[f]quinolin-3-one] | 89% | 54% |
| CN1C(=O)CC[C@]2(C)c3ccc(-c4cnccn4)cc3CC[C@@H]12 [Example 253, (+)-(4aR)-(10bR)-4-methyl-8-(2-pyrazinyl)-10b-methyl-1,2,3,4,4a,5,6,10b-octahydrobenzo[f]quinolin-3-one] | 5% | 32% |
| CN1C(=O)CC[C@]2(C)c3ccc(-c4ncccn4)cc3CC[C@@H]12 [Example 254, (+)-(4aR)-(10bR)-4-methyl-8-(2-pyrimidinyl)-10b-methyl-1,2,3,4,4a,5,6,10b-octahydrobenzo[f]quinolin-3-one] | 37% | 28% |
| CN1C(=O)CC[C@]2(C)c3ccc(-c4cnc5ccccc5n4)cc3CC[C@@H]12 [Example 255, (+)-(4aR)-(10bR)-4-methyl-8-(2-quinoxalinyl)-10b-methyl-1,2,3,4,4a,5,6,10b-octahydrobenzo[f]quinolin-3-one] | 71% | 37% |
| CN1C(=O)CC[C@]2(C)c3ccc(-c4nc5ccccc5[nH]4)cc3CC[C@@H]12 [Example 256, (+)-(4aR)-(10bR)-4-methyl-8-(2-benzimidazolyl)-10b-methyl-1,2,3,4,4a,5,6,10b-octahydrobenzo[f]quinolin-3-one] | 38% | 18% |
| CN1C(=O)CC[C@]2(C)c3ccc(-c4n[nH]c5ccccc45)cc3CC[C@@H]12 [Example 257, (+)-(4aR)-(10bR)-4-methyl-8-(3-indazolyl)-10b-methyl-1,2,3,4,4a,5,6,10b-octahydrobenzo[f]quinolin-3-one] | 36% | 58% |
| CN1C(=O)CC[C@]2(C)c3ccc(-c4nnnn4-c4ccccc4)cc3CC[C@@H]12 [Example 258, (+)-(4aR)-(10bR)-4-methyl-8-(2-[3-phenyl]tetrazolyl)-10b-methyl-1,2,3,4,4a,5,6,10b-octahydrobenzo[f]quinolin-3-one] | 27% | 16% |
| CN1C(=O)CC[C@]2(C)c3ccc(-c4ccc(C(F)(F)F)cn4)cc3CC[C@@H]12 [Example 259, (+)-(4aR)-(10bR)-4-methyl-8-(2-[5-trifluoromethyl]pyridinyl)-10b-methyl-1,2,3,4,4a,5,6,10b-octahydrobenzo[f]quinolin-3-one] | 31% | 14% |
| CN1C(=O)CC[C@]2(C)c3ccc(-c4nc5c(ccc6ccccc65)s4)cc3CC[C@@H]12 [Example 260, (+)-(4aR)-(10bR)-4-methyl-8-(2-naphtho<1,2-d>thiazolyl)-10b-methyl-1,2,3,4,4a,5,6,10b-octahydrobenzo[f]quinolin-3-one] | 84% | 40% |
| CN1C(=O)CC[C@]2(C)c3ccc(-c4nc5c(F)cccc5s4)cc3CC[C@@H]12 [Example 261, (+)-(4aR)-(10bR)-4-methyl-8-(2-[4-fluoro]benzothiazolyl)-10b-methyl-1,2,3,4,4a,5,6,10b-octahydrobenzo[f]quinolin-3-one] | 86% | 49% |
| CN1C(=O)CC[C@]2(C)c3ccc(-c4nc5c(Cl)cccc5s4)cc3CC[C@@H]12 [Example 262, (+)-(4aR)-(10bR)-4-methyl-8-(2-[4-chloro]benzothiazolyl)-10b-methyl-1,2,3,4,4a,5,6,10b-octahydrobenzo[f]quinolin-3-one] | 91% | 41% |
| CN1C(=O)CC[C@]2(C)c3ccc(-c4nc5cc(Cl)c(Cl)cc5s4)cc3CC[C@@H]12 [Example 263, (+)-(4aR)-(10bR)-4-methyl-8-(2-[5,6-dichloro]benzothiazolyl)-10b-methyl-1,2,3,4,4a,5,6,10b-octahydrobenzo[f]quinolin-3-one] | 56% | 47% |
| CC(C)c1cccc2sc(-c3ccc4c(c3)CC[C@H]3N(C)C(=O)CC[C@]43C)nc12 [Example 264, (+)-(4aR)-(10bR)-4-methyl-8-(2-[4-isopropyl]benzothiazolyl)-10b-methyl-1,2,3,4,4a,5,6,10b-octahydrobenzo[f]quinolin-3-one] | 90% | 45% |
| CN1C(=O)CC[C@]2(C)c3ccc(-c4nc5ccc(Cl)cc5s4)cc3CC[C@@H]12 [Example 265, (+)-(4aR)-(10bR)-4-methyl-8-(2-[6-chloro]benzothiazolyl)-10b-methyl-1,2,3,4,4a,5,6,10b-octahydrobenzo[f]quinolin-3-one] | 78% | 40% |
| CN1C(=O)CC[C@]2(C)c3ccc(Oc4ccc5ccccc5n4)cc3CC[C@@H]12 [Example 266, (+)-(4aR)-(10bR)-4-methyl-8-(2-quinolinyloxy)-10b-methyl-1,2,3,4,4a,5,6,10b-octahydrobenzo[f]quinolin-3-one] | 57% | 44% |
